Test results from patent publication US11149033B2, “Heteroaryl compound, enantiomer, diastereomer or pharmaceutically acceptable salt thereof, and antiviral composition containing same as active ingredient” (priority 2016, dated 2021).

Experiments:
[1] = system: B/Florida/04/2006; assay: Antiviral activity (drug efficacy evaluation by concentration) against B/Florida/04/2006; assay type: cell-based, B type influenza virus
[2] = system: A/California/07/2009 (H1N1); assay: Antiviral activity (drug efficacy evaluation by concentration) against A/California/07/2009 (H1N1); assay type: cell-based, A type influenza virus; conditions: Influenza A virus, H1N1; read-out: EC50
[3] = system: A/Perth/16/2009 (H3N2); assay: Antiviral activity (drug efficacy evaluation by concentration) against A/Perth/16/2009 (H3N2); assay type: cell-based, A type influenza virus; conditions: Influenza A virus, H3N2; read-out: EC50
[4] = in vitro
[5] = CC50, third EC50/CC50 column pair (c7), beside the EC50 of c6

Compound	EC50 [1]	EC50 [2]	EC50 [3]	CC50 ([4]; CC50, beside the EC50 of c2)	CC50 ([4]; CC50, beside the EC50 of c4)	CC50 [4, 5]
Clc1cccc(Cc2nnc(SCc3ccccc3-c3ccccc3)o2)c1 [Compound 95, 2-(([1,1′-biphenyl]-2-ylmethyl)thio)-5-(3-chlorobenzyl)-1,3,4-oxadiazole]	37.6 µM	12.5 µM	41.4 µM	> 50 µM	> 50 µM	> 50 µM
Cc1nn(Cc2nnc(S(=O)(=O)Cc3ccccc3-c3ccccc3)o2)c(C)c1Br [Compound 96, 2-(([1,1′-biphenyl]-2-ylmethyl)sulfonyl)-5-((4-bromo-3,5-dimethyl-1H-pyrazol-1-yl)methyl)-1,3,4-oxadiazole]	1.03 µM	1.3 µM	1.3 µM	> 50 µM	> 50 µM	> 50 µM
COC(c1ccccc1)c1nnc(SCc2ccccc2-c2ccccc2)o1 (stereo not drawn) [Compound 97, 2-(([1,1′-biphenyl]-2-ylmethyl)thio)-5-(methoxy(phenyl)methyl)-1,3,4-oxadiazole]	2.53 µM	4.4 µM	5.9 µM	6.08 µM	6.2 µM	6 µM
Brc1ccc(Cc2nnc(Cc3cccc4ccccc34)o2)cc1 [Compound 100, 2-(4-bromobenzyl)-5-(naphthalen-1-ylmethyl)-1,3,4-oxadiazole]	> 50 µM	> 50 µM	49 µM	> 50 µM	> 50 µM	> 50 µM
CC(C)c1ccccc1CCc1nnc(Cc2cccc(Br)c2)o1 [Compound 101, 2-(3-bromobenzyl)-5-(2-isopropylphenethyl)-1,3,4-oxadiazole]	36.5 µM	45.3 µM	45.5 µM	> 50 µM	> 50 µM	> 50 µM
CC(C)c1ccccc1CCc1nnc(Cc2cccc(Cl)c2)o1 [Compound 102, 2-(3-chlorobenzyl)-5-(2-isopropylphenethyl)-1,3,4-oxadiazole]	2.14 µM	1.7 µM	1.5 µM	47.7 µM	> 50 µM	> 50 µM
Cc1ccccc1CCc1nnc(Cc2ccc(Br)cc2)o1 [Compound 103, 2-(4-bromobenzyl)-5-(2-methylphenethyl)-1,3,4-oxadiazole]	3.15 µM	3.1 µM	3 µM	> 50 µM	> 50 µM	> 50 µM
Brc1cccc(Cc2nnc(SCc3ccccc3-c3ccccc3)o2)c1 [Compound 104, 2-(([1,1′-biphenyl]-2-ylmethyl)thio)-5-(3-bromobenzyl)-1,3,4-oxadiazole]	42.8 µM	> 50 µM	> 50 µM	> 50 µM	> 50 µM	> 50 µM
FC(F)(F)Oc1ccc(Cc2nnc(SCc3ccccc3-c3ccccc3)o2)cc1 [Compound 106, 2-(([1,1′-biphenyl]-2-ylmethyl)thio)-5-(4-(trifluoromethoxy)benzyl)-1,3,4-oxadiazole]	12.1 µM	11.5 µM	11.8 µM	> 50 µM	> 50 µM	> 50 µM
Brc1ccc(Cc2nnc(CC3CCCc4ccccc43)o2)cc1 (stereo not drawn) [Compound 109, 2-(4-bromobenzyl)-5-((1,2,3,4-tetrahydronaphthalen-1-yl)methyl)-1,3,4-oxadiazole]	34.7 µM	45.9 µM	32.4 µM	> 50 µM	> 50 µM	> 50 µM
Cc1ccccc1C(C)Cc1nnc(Cc2ccc(Br)cc2)o1 (stereo not drawn) [Compound 110, 2-(4-bromobenzyl)-5-(2-(o-tolyl)propyl)-1,3,4-oxadiazole]	46.7 µM	32.2 µM	41.5 µM	46.7 µM	> 50 µM	> 50 µM
Cc1cc(C)cc(Cc2nnc(/C=C/c3ccccc3C(C)C)o2)c1 [Compound 113, 2-(3,5-dimethylbenzyl)-5-(2-isopropylstyryl)-1,3,4-oxadiazole]	1.55 µM	1.37 µM	1.39 µM	10 µM	25.5 µM	40.2 µM
CC(C)c1ccccc1OCc1nnc(Cc2ccccc2)o1 [Compound 114, 2-benzyl-5-((2-isopropylphenoxy)methyl)-1,3,4-oxadiazole]	12 µM	17.7 µM	17.7 µM	21.8 µM	> 50 µM	> 50 µM
CC(C)c1ccccc1OCc1nnc(Cc2ccc(Br)cc2)o1 [Compound 115, 2-(4-bromobenzyl)-5-((2-isopropylphenoxy)methyl)-1,3,4-oxadiazole]	45.1 µM	44.9 µM	38.2 µM	> 50 µM	> 50 µM	> 50 µM
